Experiments:
[1] = biological target: T1, Catalytic domains of human DNMT 3a/3L enzyme (Homo sapiens, UniProt Q9Y6K1); test: DNMT inhibition assay (3H-SAM filter plate scintillation), DNMT 3a/3L; format: biochemical; conditions: Poly(dIdC) DNA 0.002 mg/mL, H3 SAM 500 nM, 30 min pre-incubation without SAM, 37° C. 1 h; read-out: DNMT 3a/3I IC50
T1 construct: Catalytic domains of human DNMT 3a/3L enzyme were produced by Accelagen; purchased Accelagen
Description: (§1) Catalytic domains of human DNMT 3a/3L enzyme were produced by Accelagen. Human full-length DNMT1 enzyme purchased from BPS Biosciences. Poly(dldC) DNA (Sigma) was used at 0.002 mg/mL. H3 SAM (Perkin Elmer) was used at 500 nM. DNA, DNMT enzyme, and inhibitors were mixed with assay buffer (20 mM Tris pH8, 5% glycerol, 1 mM EDTA, 100 μg/mL BSA, 1 mM DTT, 50 mM NaCl) and pre-incubated without SAM for 30 min. H3 SAM was then added to initiate the methylation reaction which continues at 37° C. for 1 h. Reaction mixture was then transferred to a filter plate (Millipore Multiscreen HTS DE), then washed with 50 mM H2PO4 and 95% Ethanol. Scintillation counts were measured on the Perkin Elmer Microbeta scintillation counter.

[2] = biological target: T2, Human full-length DNMT1 enzyme (Homo sapiens, UniProt P26358); test: DNMT inhibition assay (3H-SAM filter plate scintillation), DNMT1; format: biochemical; conditions: Poly(dIdC) DNA 0.002 mg/mL, H3 SAM 500 nM, 30 min pre-incubation without SAM, 37° C. 1 h
T2 construct: Human full-length DNMT1 enzyme purchased from BPS Biosciences; purchased BPS Biosciences
Description: as §1

T2 sequence (P26358 whole entry): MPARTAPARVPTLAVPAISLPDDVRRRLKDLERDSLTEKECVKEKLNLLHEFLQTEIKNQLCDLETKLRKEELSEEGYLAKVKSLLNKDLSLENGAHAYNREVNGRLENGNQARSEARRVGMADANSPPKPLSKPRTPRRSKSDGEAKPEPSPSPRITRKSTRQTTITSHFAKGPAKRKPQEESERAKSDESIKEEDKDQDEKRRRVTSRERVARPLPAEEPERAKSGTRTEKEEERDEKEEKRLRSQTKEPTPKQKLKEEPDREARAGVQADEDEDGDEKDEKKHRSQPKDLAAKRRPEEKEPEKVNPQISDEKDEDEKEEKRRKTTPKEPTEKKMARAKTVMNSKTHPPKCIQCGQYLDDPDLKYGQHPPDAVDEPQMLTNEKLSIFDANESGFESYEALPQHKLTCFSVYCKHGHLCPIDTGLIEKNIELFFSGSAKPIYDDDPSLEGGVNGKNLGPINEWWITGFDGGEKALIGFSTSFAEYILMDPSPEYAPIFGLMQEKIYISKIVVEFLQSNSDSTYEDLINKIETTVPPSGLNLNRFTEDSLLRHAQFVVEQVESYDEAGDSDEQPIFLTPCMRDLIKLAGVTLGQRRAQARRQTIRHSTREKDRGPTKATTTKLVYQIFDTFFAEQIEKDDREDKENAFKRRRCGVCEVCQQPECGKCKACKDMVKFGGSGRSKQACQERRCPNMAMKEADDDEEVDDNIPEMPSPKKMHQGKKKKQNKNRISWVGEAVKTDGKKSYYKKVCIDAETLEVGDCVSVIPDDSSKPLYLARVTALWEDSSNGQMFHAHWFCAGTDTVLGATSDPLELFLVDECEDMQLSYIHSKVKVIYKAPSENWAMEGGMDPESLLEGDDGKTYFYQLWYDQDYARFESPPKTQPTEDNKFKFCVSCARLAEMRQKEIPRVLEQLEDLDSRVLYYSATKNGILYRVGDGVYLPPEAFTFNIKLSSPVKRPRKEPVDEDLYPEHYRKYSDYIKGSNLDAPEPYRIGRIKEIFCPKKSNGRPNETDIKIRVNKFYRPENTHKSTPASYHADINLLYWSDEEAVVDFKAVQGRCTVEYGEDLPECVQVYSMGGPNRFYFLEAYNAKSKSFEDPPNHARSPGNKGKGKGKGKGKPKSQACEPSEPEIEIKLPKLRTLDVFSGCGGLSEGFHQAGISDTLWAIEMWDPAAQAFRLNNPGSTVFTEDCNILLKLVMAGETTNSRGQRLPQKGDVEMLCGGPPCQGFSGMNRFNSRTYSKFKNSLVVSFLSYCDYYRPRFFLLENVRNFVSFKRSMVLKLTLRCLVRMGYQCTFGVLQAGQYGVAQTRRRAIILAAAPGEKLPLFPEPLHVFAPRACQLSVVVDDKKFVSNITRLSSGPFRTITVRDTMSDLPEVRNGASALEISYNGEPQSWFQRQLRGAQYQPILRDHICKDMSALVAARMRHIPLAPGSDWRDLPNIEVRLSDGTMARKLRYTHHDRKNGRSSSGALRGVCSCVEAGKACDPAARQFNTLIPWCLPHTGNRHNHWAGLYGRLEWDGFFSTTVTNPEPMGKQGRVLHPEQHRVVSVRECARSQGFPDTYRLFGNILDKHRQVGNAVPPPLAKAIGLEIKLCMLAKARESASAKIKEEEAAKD
T1 sequence (Q9Y6K1 634-912 limits assumed): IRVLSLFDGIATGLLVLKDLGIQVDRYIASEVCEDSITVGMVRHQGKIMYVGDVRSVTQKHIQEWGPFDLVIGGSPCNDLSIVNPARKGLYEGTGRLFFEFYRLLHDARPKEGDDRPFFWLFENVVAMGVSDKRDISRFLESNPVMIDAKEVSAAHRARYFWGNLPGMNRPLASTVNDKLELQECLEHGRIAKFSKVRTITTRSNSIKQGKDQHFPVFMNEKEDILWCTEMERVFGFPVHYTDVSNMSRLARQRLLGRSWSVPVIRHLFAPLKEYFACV
T1 sequence (Q9UJW3 178-386 partner limits assumed): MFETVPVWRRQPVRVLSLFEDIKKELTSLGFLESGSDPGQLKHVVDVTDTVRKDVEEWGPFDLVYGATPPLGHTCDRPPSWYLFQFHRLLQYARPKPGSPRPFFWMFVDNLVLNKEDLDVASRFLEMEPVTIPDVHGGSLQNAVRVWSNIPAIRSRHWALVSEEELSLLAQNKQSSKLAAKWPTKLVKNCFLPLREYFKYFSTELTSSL

Work on `C=CC(=O)NCCSC[C@@H]1O[C@H](n2cnc3c(N)ncnc32)[C@@H](O)[C@H]1O` [Example 5, N-(2-((((2R,3R,4S,5S)-5-(6-Amino-9H-purin-9-yl)-3,4-di hydroxytetrahydrofuran-2-yl)methyl)thio)ethyl)acrylamide] yielded an IC50 [1] of 24 µM and an IC50 [2] of 49 µM.
Compound `Nc1ncnc2c1ncn2[C@H]1O[C@@H](CSCCNc2cc(Cl)ncn2)[C@H](O)[C@@H]1O` [Example 4] has an IC50 [1] of 60 µM and an IC50 [2] of 48 µM.
For `Nc1ncnc2c1ncn2[C@H]1O[C@@H](CSCCNc2ccnc(Cl)n2)[C@H](O)[C@@H]1O` [Example 2, (2S,3S,4R,5R)-2-(6-Amino-9H-purin-9-yl)-5-(((2-((2-chloropyrimidin-4-yl)amino)ethyl)thio)methyl)tetrahydrofuran-3,4-diol], the IC50 [1] was 95 µM.
Work on `Nc1ncnc2c1ncn2[C@H]1O[C@@H](CSCCNc2ccncn2)[C@H](O)[C@@H]1O` [Example 3, (2S,3S,4R,5R)-2-(6-Amino-9H-purin-9-yl)-5-(((2-(pyrimidin-4-ylamino)ethyl)thio)methyl)tetrahydrofuran-3,4-diol] yielded an IC50 [1] of 26 µM.
In the case of `Nc1ncnc2c1ncn2[C@H]1O[C@@H](CSCCNc2nccc(Cl)n2)[C@H](O)[C@@H]1O` [Example 1, (2S,3S,4R,5R)-2-(6-Amino-9H-purin-9-yl)-5-(((2-((4-chloropyrimidin-2-yl)amino)ethyl)thio)methyl)tetrahydrofuran-3,4-diol], the IC50 [1] is reported as 3 µM and the IC50 [2] is reported as over 300 µM.

Source: patent publication US20140357594A1, “NEW COMPOUNDS” (GlaxoSmithkline Intellectual Property (No.2) Limited, priority 2011, published 2014)
